The target in experiment [1] is RAF kinases (Homo sapiens, UniProt P15056, V600E). Particulars: read-out: BRAF V600E Kd; BRAF V600E.
Experiment [2] has as its target RAF kinases (Homo sapiens, UniProt P15056). Particulars: read-out: BRAF WT Kd; BRAF WT.
Experiment [3] concerns the target RAF kinases (Homo sapiens, UniProt P04049). The note with it: read-out: RAF1 Kd; RAF1.
The test system of a further experiment is A375 cells. Nature of the experiment: cells. The note with it: Homo sapiens, A-375, read-out: A375 Viability EC50.
Experiment [4] relates to MEK1 phosphorylation in the A375 human melanoma cell line. Briefly: cells. Particulars: A-375, read-out: pMEK IC50.

These results are taken from US8618289B2 (Ambit Biosciences Corporation, priority 2008, dated 2013).

Each structure is given as a SMILES string. Counter-ions that a name gives are not always drawn.

Sequence of RAF kinases (Homo sapiens, UniProt P04049) (P04049 whole entry): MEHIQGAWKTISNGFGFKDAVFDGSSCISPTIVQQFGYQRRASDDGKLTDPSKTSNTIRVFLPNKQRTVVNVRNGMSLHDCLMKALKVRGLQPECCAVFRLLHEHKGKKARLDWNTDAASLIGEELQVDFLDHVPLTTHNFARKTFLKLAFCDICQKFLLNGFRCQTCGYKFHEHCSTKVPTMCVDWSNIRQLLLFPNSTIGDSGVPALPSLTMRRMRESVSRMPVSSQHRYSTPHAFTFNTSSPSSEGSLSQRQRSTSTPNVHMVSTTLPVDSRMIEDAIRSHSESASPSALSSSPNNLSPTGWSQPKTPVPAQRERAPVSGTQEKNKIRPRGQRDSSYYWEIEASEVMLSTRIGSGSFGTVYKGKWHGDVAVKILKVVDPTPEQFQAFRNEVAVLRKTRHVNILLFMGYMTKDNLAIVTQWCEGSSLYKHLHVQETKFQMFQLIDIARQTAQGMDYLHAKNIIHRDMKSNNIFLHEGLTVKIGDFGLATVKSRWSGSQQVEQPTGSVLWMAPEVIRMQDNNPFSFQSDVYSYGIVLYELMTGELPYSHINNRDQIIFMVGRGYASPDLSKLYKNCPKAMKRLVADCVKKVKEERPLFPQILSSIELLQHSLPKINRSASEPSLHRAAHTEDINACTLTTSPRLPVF
Sequence of RAF kinases (Homo sapiens, UniProt P15056, V600E) (P15056 whole entry V600E): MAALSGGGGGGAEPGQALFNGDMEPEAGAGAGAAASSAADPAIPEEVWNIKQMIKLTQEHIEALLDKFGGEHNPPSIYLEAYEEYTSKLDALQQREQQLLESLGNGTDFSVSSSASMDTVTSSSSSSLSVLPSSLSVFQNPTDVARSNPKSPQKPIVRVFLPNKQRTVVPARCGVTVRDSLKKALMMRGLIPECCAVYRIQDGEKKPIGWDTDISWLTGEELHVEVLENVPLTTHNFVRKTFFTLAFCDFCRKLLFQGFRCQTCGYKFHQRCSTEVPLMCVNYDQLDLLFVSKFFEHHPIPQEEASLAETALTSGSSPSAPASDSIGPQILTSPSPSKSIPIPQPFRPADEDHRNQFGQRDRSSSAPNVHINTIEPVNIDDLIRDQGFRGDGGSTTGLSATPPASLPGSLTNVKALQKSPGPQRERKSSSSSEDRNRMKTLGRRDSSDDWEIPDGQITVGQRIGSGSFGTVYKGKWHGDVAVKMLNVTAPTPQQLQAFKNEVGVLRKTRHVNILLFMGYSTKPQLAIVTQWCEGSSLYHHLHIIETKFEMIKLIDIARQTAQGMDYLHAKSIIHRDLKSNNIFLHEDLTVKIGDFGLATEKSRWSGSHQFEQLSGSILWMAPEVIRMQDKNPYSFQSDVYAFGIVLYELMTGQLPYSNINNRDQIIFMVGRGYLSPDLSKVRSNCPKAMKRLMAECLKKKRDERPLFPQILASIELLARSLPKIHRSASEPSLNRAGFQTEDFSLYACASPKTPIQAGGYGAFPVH
Sequence of RAF kinases (Homo sapiens, UniProt P15056) (P15056 whole entry): as the sequence (P15056 whole entry V600E) above, with E600V counted along it
Protocol for A375 cells: The following day, the medium was replaced with 0.5% FBS in M3 for overnight incubation. […] The cells were incubated with compound or control for 72 hours at 37° C. under 10% CO2. Following incubation, Cell Titer Blue reagent (Promega) was added to each well containing compounds or controls, and then incubated for 3 hours at 37° C. under 10% CO2. Proliferation was measured by fluorescence with excitation at 560 nm and emission at 590 nm using SoftMax Pro.

In general, Kd refers to the constant that tells how readily two partners part at equilibrium. Usually EC50 stands for the concentration at which the effect is half-maximal. As usually defined, the IC50 is the concentration needed to halve the response being measured. Consider `CCOc1cc2c(Sc3cccc(NC(=O)Nc4cc(C(C)(CF)CF)on4)c3)ncnc2cc1OC` [Ex 395, 1-(5-(1,3-difluoro-2-methylpropan-2-yl)isoxazol-3-yl)-3-(3-(6-ethoxy-7-methoxyquinazolin-4-ylthio)phenyl)urea], for which the Kd at RAF kinases [1], at RAF kinases [2] and on RAF kinases [3] was less than 250 nM in each case. Further, the EC50 in the experiment on A375 cells was less than 250 nM. Also, the IC50 in experiment [4] is less than 250 nM.
With `COc1cc2ncnc(Oc3ccc(Cl)c(NC(=O)Nc4cc(C(C)(C)C)nn4-c4ccccc4)c3)c2cc1OC` [Ex 301, 1-(3-tert-butyl-1-phenyl-1H-pyrazol-5-yl)-3-(2-chloro-5-(6,7-dimethoxyquinazolin-4-yloxy)phenyl)urea], the Kd on RAF kinases [1], on RAF kinases [2] and at RAF kinases [3] was more than 1000 nM in each case. Moreover, in the experiment on A375 cells, the 50% effective concentration (EC50) lay in the range of 250 to 500 nM. For the same compound, in experiment [4], the IC50 was less than 250 nM.
For `COc1cc2ncnc(Oc3cccc(NC(=O)Nc4cc(C(C)(CF)CF)on4)c3F)c2cc1OC` [Ex 297, 1-(5-(1,3-difluoro-2-methylpropan-2-yl)isoxazol-3-yl)-3-(3-(6,7-dimethoxyquinazolin-4-yloxy)-2-fluorophenyl)urea], the dissociation constant Kd on RAF kinases [1], on RAF kinases [2] and on RAF kinases [3] was less than 250 nM throughout. Further, the concentration for a half-maximal effect (EC50) in the experiment on A375 cells is 250 to 500 nM. Further, the IC50 in experiment [4] is 250 to 500 nM.
For the compound `CCOc1cc2ncnc(Sc3cccc(NC(=O)Nc4cc(C(C)(C)F)no4)c3)c2cc1OC` [Ex 389, 1-(3-(7-ethoxy-6-methoxyquinazolin-4-ylthio)phenyl)-3-(3-(2-fluoropropan-2-yl)isoxazol-5-yl)urea], the equilibrium dissociation constant (Kd) at RAF kinases [1], at RAF kinases [2] and at RAF kinases [3] was less than 250 nM in each case. The EC50 in the experiment on A375 cells was 250 to 500 nM. Further, in experiment [4], the IC50 was in the range of 500 to 1000 nM.
For `COc1cc2ncnc(Sc3cccc(NC(=O)Nc4cc(C(C)(C)C(F)(F)F)no4)c3)c2cc1OC` [Ex 268, 1-(3-(6,7-dimethoxyquinazolin-4-ylthio)phenyl)-3-(3-(1,1,1-trifluoro-2-methylpropan-2-yl)isoxazol-5-yl)urea], the Kd on RAF kinases [1], at RAF kinases [2] and on RAF kinases [3] was less than 250 nM throughout. In addition, in the experiment with A375 cells, the half-maximal effective concentration (EC50) was 500 to 1000 nM. In experiment [4], the IC50 was less than 250 nM.
In the case of `COc1cc2ncnc(Oc3cccc(NC(=O)Nc4cc(C(C)(C)F)no4)c3)c2cc1O` [Ex 258, 1-(3-(2-fluoropropan-2-yl)isoxazol-5-yl)-3-(3-(6-hydroxy-7-methoxyquinazolin-4-yloxy)phenyl)urea], the Kd on RAF kinases [1], at RAF kinases [2] and on RAF kinases [3] was less than 250 nM in each case. In the experiment with A375 cells, the EC50 lay in the range of 250 to 500 nM. Further, the IC50 in experiment [4] was less than 250 nM.
In the case of `COc1cc2ncnc(Oc3ccc(Cl)c(NC(=O)Nc4cc(C(C)(C)C)nn4-c4ccc(C)cc4)c3)c2cc1OC` [Ex 298, 1-(3-tert-butyl-1-p-tolyl-1H-pyrazol-5-yl)-3-(2-chloro-5-(6,7-dimethoxyquinazolin-4-yloxy)phenyl)urea], the equilibrium dissociation constant (Kd) on RAF kinases [1], on RAF kinases [2] and on RAF kinases [3] was more than 1000 nM in each case. Also, the EC50 in the experiment on A375 cells was less than 250 nM. Further, the IC50 in experiment [4] was less than 250 nM.
Turning to `COCCOc1cc2ncnc(Oc3cccc(NC(=O)Nc4cc(C5CC5)no4)c3)c2cc1OC` [Ex 214, 1-(3-cyclopropylisoxazol-5-yl)-3-(3-(6-methoxy-7-(2-methoxyethoxy)quinazolin-4-yloxy)phenyl)urea], the Kd on RAF kinases [1], on RAF kinases [2] and on RAF kinases [3] was less than 250 nM in each case. Further, the EC50 with A375 cells is more than 1000 nM. The half-inhibitory concentration (IC50) in experiment [4] was more than 1000 nM.
As for `COc1cc2c(Oc3cccc(NC(=O)Nc4cc(C(C)(C)C)on4)c3)ncnc2cc1OCCCN1CCS(=O)(=O)CC1` [Ex 256, 1-(5-tert-butyl-isoxazol-3-yl)-3-(3-{7-[3-(1,1-dioxo-thiomorpholin-4-yl)-propoxy]-6-methoxy-quinazolin-4-yloxy}-phenyl)-urea], the Kd on RAF kinases [1], at RAF kinases [2] and at RAF kinases [3] was less than 250 nM throughout. Further, the EC50 in the experiment on A375 cells was less than 250 nM. Also, the IC50 in experiment [4] was less than 250 nM.
On to `COc1cc2c(Oc3cccc(NC(=O)Nc4ccc(OC)c(C(F)(F)F)c4)c3)ncnc2cc1OCCN1CCOCC1` [Ex 250, 1-(4-methoxy-3-(trifluoromethyl)phenyl)-3-(3-(6-methoxy-7-(2-morpholinoethoxy)quinazolin-4-yloxy)phenyl)urea], for which the Kd on RAF kinases [1], at RAF kinases [2] and at RAF kinases [3] was less than 250 nM each time. In the experiment with A375 cells, the EC50 is more than 1000 nM. Further, in experiment [4], the half-inhibitory concentration (IC50) is 250 to 500 nM.
With `COCCOc1cc2ncnc(Sc3cccc(NC(=O)Nc4cc(C(F)(F)F)n(-c5ccccc5)n4)c3)c2cc1OC` [Ex 244, 1-{3-[6-methoxy-7-(2-methoxyethoxy)quinazolin-4-ylthio]phenyl}-3-[1-phenyl-5-(trifluoromethyl)-1H-pyrazol-3-yl]urea], the Kd at RAF kinases [1], at RAF kinases [2] and on RAF kinases [3] was more than 1000 nM each time. Moreover, the EC50 in the experiment on A375 cells was more than 1000 nM. For the same compound, in experiment [4], the IC50 is more than 1000 nM.
Turning to `COc1cc2ncnc(Oc3cc(NC(=O)Nc4cc(C(C)(C)F)no4)c(F)cc3F)c2cc1OC` [Ex 269, 1-(5-(6,7-dimethoxyquinazolin-4-yloxy)-2,4-difluorophenyl)-3-(3-(2-fluoropropan-2-yl)isoxazol-5-yl)urea], the Kd at RAF kinases [1], at RAF kinases [2] and on RAF kinases [3] was less than 250 nM each time. For the same compound, the EC50 in the experiment on A375 cells was less than 250 nM. Moreover, the half-inhibitory concentration (IC50) in experiment [4] was less than 250 nM.
With `COc1cc2ncnc(Oc3cccc(NC(=O)Nc4cc(C(C)(C)C(F)(F)F)on4)c3)c2cc1O` [Ex 264, 1-(3-(6-hydroxy-7-methoxyquinazolin-4-yloxy)phenyl)-3-(5-(1,1,1-trifluoro-2-methylpropan-2-yl)isoxazol-3-yl)urea], the Kd on RAF kinases [1], at RAF kinases [2] and at RAF kinases [3] was less than 250 nM each time. For the same compound, the EC50 in the experiment with A375 cells is less than 250 nM. In experiment [4], the IC50 is less than 250 nM.
`CCOc1cc2c(Oc3cccc(NC(=O)Nc4cc(C(C)(C)C(F)(F)F)on4)c3)ncnc2cc1OC` [Ex 260, 1-(3-(6-ethoxy-7-methoxyquinazolin-4-yloxy)phenyl)-3-(5-(1,1,1-trifluoro-2-methylpropan-2-yl)isoxazol-3-yl)urea]: the dissociation constant Kd at RAF kinases [1], on RAF kinases [2] and on RAF kinases [3] was less than 250 nM in each case. The EC50 with A375 cells was less than 250 nM. For the same compound, the IC50 in experiment [4] is less than 250 nM.
For the compound `COc1cc2c(Oc3cccc(NC(=O)Nc4cc(C(C)(C)F)no4)c3)ncnc2cc1O` [Ex 257, 1-(3-(2-fluoropropan-2-yl)isoxazol-5-yl)-3-(3-(7-hydroxy-6-methoxyquinazolin-4-yloxy)phenyl)urea], the Kd at RAF kinases [1], on RAF kinases [2] and on RAF kinases [3] was less than 250 nM each time. Also, in the experiment with A375 cells, the EC50 was in the range of 500 to 1000 nM. In addition, the IC50 in experiment [4] was in the range of 250 to 500 nM.
Turning to `CCOC(=O)Cn1nc(C(C)(C)C)cc1NC(=O)Nc1cccc(Oc2ncnc3cc(OCCOC)c(OC)cc23)c1` [Ex 224, ethyl 2-[3-tert-butyl-5-(3-{3-[6-methoxy-7-(2-methoxyethoxy)quinazolin-4-yloxy]phenyl}ureido)-1H-pyrazol-1-yl]acetate hydrochloride], the Kd at RAF kinases [1], at RAF kinases [2] and at RAF kinases [3] was more than 1000 nM each time. Moreover, the EC50 in the experiment on A375 cells is more than 1000 nM. Besides, the IC50 in experiment [4] was more than 1000 nM.
Regarding `COCCOc1cc2ncnc(Oc3cccc(NC(=O)Nc4cc(C(F)(F)F)nn4C)c3)c2cc1OC` [Ex 220, 1-{3-[6-methoxy-7-(2-methoxyethoxy)quinazolin-4-yloxy]phenyl}-3-[1-methyl-3-(trifluoromethyl)-1H-pyrazol-5-yl]urea], the Kd on RAF kinases [1], at RAF kinases [2] and on RAF kinases [3] was less than 250 nM throughout. Moreover, the 50% effective concentration (EC50) with A375 cells is more than 1000 nM. For the same compound, the IC50 in experiment [4] fell in the range of 500 to 1000 nM.
As for `COc1cc2ncnc(Oc3cccc(NC(=O)Nc4cc(C(C)(C)C(F)(F)F)no4)c3)c2cc1OC` [Ex 267, 1-(3-(6,7-dimethoxyquinazolin-4-yloxy)phenyl)-3-(3-(1,1,1-trifluoro-2-methylpropan-2-yl)isoxazol-5-yl)urea], the Kd on RAF kinases [1], at RAF kinases [2] and at RAF kinases [3] was less than 250 nM throughout. In addition, the 50% effective concentration (EC50) in the experiment with A375 cells lay in the range of 500 to 1000 nM. Besides, the half-inhibitory concentration (IC50) in experiment [4] was less than 250 nM.
As to `COCCOc1cc2ncnc(Oc3cccc(NC(=O)Nc4cc(C(C)C)on4)c3)c2cc1OC` [Ex 206, 1-(5-isopropylisoxazol-3-yl)-3-(3-(6-methoxy-7-(2-methoxyethoxy)quinazolin-4-yloxy)phenyl)urea], the Kd on RAF kinases [1], on RAF kinases [2] and on RAF kinases [3] was less than 250 nM throughout. For the same compound, in the experiment with A375 cells, the EC50 is more than 1000 nM. For the same compound, in experiment [4], the IC50 was 500 to 1000 nM.
For `COCCOc1cc2ncnc(Sc3cccc(NC(=O)Nc4cc(C(F)(F)F)nn4-c4ccc(C)cc4)c3)c2cc1OC` [Ex 243, 1-{3-[6-methoxy-7-(2-methoxyethoxy)quinazolin-4-ylthio]phenyl}-3-[1-p-tolyl-3-(trifluoromethyl)-1H-pyrazol-5-yl]urea], the Kd on RAF kinases [1], at RAF kinases [2] and on RAF kinases [3] was more than 1000 nM in each case. Further, in the experiment with A375 cells, the EC50 was in the range of 250 to 500 nM. The IC50 in experiment [4] is 250 to 500 nM.
For the compound `COc1cc2ncnc(Sc3cccc(NC(=O)Nc4cc(C(F)(F)F)no4)c3)c2cc1OC` [Ex 382, 1-(3-(6,7-dimethoxyquinazolin-4-ylthio)phenyl)-3-(3-(trifluoromethyl)isoxazol-5-yl)urea], the Kd at RAF kinases [1], on RAF kinases [2] and on RAF kinases [3] was less than 250 nM each time. Further, in the experiment with A375 cells, the EC50 was more than 1000 nM. Further, in experiment [4], the IC50 was more than 1000 nM.
